Laboratory results: patent US12180207B2 (ARRAY BIOPHARMA INC., priority 2018, dated 2024)

How the values were obtained:
[1] = target: T1, HEK-293 cells transfected with dox-inducible human wild type FGFR3 (Homo sapiens (Human), UniProt P22607); experiment: FGFR3 pFGFR cell assay (ELISA); assay type: cell-based; conditions: HEK-293 dox-inducible FGFR3, 1 hour compound, 100 ng/ml FGF-acidic
Description: FGFR3 pFGFR Cell Assay: • HEK-293 cells transfected with dox-inducible human wild type FGFR3 (SEQ ID NO: 5) were plated in a collagen or poly-D-lysine coated 96 well flat bottom plates at 4×10^5 cells/well in complete DMEM medium containing 10% FBS and 1 μg/ml doxycycline and allowed to attach for 24 h at 37° C., 5% CO2. Cells were treated with compound using 1:3 serial dilutions with a top final concentration of 5 μM. Compound was incubated on cells for 1 hour at 37° C., 5% CO2. Cells were then stimulated with a final concentration of 100 ng/ml human FGF-acidic for 5 minutes at 37° C., 5% CO2. Medium was removed and cells were lysed with lysis buffer containing phosphatase and protease inhibitors. Phospho FGFR3 was measured by ELISA (R&D Systems cat DYC2719). The ELISA captures total FGFR3 and detects total phospho tyrosine. Optical density was measured for each well using a Versamax reader at a wavelength of 450 nm. 100 POC was determined using no test compounds and 0 POC was determined using a control compound. The POC values were fit to a 4-parameter logistic curve as a function of the concentration of the compound, and the IC50 value is the point where the curve crosses 50 POC.

[2] = target: recombinant human FGFR3 (amino acids R397-T806) (Homo sapiens (Human), UniProt P22607); experiment: FGFR3 enzyme activity assay (LanthaScreen TR-FRET); assay type: biochemical; conditions: 25 μM ATP, 10 min incubation at 22° C., average of multiple determinations if made, read-out: FGFR3 Enz FRET IC50
Summary of the method: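 GST-HIS6-tagged human FGFR3 (R397-T806) was reacted with 100 nM Alexa Fluor 647-Poly-GT substrate and 25 μM ATP plus compound in HEPES/MgCl2/Triton buffer, pH 7.5, 2% DMSO, for 10 min at 22 °C.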

[3] = target: T1, HEK-293 cells transfected with dox-inducible human wild type FGFR3; experiment: FGFR3 pERK cell assay; assay type: cell-based; conditions: HEK-293 dox-inducible FGFR3, 1 hour compound, 100 ng/ml FGF-acidic; maximum concentration 5 μM
Description: (§1) FGFR3 pERK Cell Assay: • HEK-293 cells transfected with dox-inducible human wild type FGFR3 (SEQ ID NO: 5) were plated in a collagen or poly-D-lysine coated 96 well flat bottom plates at 4×10^5 cells/well in complete DMEM medium containing 10% FBS and 1 μg/ml doxycycline and allowed to attach for 24 h at 37° C., 5% CO2. Cells were treated with compound using 1:3 serial dilutions with a maximum final concentration of 5 μM. Compound was incubated on cells for 1 hour at 37° C., 5% CO2. Cells were then stimulated with a final concentration of 100 ng/ml human FGF-acidic (R&D Systems Cat number 232-FA/CF) for 5 minutes at 37° C., 5% CO2. Medium was removed, and cells were lysed with lysis buffer containing phosphatase and protease inhibitors. Phospho ERK1/2 was measured using the Meso Scale Discovery sandwich assay (Meso Scale Discovery cat. no. K151DWD). The assay captures phospho ERK1/2 and detects with a sulfo-tagged total ERK1/2 antibody. The chemiluminescent signal was read on the Sector Imager Plate reader. 100 POC was determined using no test compounds and 0 POC was determined using a control compound. The POC values were fit to a 4-parameter logistic curve as a function of the concentration of the compound, and the IC50 value is the point where the curve crosses 50 POC.

[4] = target: HEK-293 cells transfected with dox-inducible human wild type FGFR1 (Homo sapiens (Human), UniProt P11362); experiment: FGFR1 pERK cell assay; assay type: cell-based; conditions: HEK-293 dox-inducible FGFR1, 1 hour compound, 100 ng/ml FGF-acidic; maximum concentration 5 μM
Description: as §1, with “FGFR1” for “FGFR3”, “doxycycline(dox)-inducible” for “dox-inducible”, “1)” for “5)”, “Dulbecco's Modified Eagle Medium (DMEM)” for “DMEM medium”, “compound” for “compounds”

recombinant human FGFR3 (amino acids R397-T806), sequence (P22607 397-806): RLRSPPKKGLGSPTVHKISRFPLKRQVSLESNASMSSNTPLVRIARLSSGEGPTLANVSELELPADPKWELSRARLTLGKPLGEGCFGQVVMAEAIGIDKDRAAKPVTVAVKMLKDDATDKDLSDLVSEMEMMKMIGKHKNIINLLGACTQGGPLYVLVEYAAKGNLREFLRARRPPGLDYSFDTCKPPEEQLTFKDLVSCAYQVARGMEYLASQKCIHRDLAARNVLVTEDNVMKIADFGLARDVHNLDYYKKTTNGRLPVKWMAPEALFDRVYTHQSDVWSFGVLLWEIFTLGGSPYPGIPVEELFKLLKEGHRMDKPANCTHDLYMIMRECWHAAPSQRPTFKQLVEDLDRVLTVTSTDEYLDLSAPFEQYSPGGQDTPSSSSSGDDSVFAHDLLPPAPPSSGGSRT
HEK-293 cells transfected with dox-inducible human wild type FGFR1, sequence (P11362 22-822): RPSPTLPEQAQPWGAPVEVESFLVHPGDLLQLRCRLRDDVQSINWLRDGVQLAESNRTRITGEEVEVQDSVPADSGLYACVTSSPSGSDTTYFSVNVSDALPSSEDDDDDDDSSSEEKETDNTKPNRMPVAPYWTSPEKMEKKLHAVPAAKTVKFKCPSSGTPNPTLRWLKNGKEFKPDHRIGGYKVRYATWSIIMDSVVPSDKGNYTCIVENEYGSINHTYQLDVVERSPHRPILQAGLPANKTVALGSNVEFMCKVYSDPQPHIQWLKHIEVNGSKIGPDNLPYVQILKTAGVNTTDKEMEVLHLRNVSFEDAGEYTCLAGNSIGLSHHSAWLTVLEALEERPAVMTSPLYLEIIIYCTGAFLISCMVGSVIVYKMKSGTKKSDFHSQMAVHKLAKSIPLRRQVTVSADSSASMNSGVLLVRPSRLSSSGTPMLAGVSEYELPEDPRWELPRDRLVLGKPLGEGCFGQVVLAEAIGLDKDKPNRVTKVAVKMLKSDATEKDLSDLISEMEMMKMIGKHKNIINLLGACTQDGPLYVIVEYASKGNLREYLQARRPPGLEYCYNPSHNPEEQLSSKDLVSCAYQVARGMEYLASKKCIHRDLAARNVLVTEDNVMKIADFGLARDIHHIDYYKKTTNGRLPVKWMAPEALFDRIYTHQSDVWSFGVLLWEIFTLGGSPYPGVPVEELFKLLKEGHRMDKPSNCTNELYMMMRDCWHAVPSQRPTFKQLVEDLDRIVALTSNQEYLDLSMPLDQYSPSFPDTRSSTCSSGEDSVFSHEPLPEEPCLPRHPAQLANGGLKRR
T1 sequence (P22607 23-806): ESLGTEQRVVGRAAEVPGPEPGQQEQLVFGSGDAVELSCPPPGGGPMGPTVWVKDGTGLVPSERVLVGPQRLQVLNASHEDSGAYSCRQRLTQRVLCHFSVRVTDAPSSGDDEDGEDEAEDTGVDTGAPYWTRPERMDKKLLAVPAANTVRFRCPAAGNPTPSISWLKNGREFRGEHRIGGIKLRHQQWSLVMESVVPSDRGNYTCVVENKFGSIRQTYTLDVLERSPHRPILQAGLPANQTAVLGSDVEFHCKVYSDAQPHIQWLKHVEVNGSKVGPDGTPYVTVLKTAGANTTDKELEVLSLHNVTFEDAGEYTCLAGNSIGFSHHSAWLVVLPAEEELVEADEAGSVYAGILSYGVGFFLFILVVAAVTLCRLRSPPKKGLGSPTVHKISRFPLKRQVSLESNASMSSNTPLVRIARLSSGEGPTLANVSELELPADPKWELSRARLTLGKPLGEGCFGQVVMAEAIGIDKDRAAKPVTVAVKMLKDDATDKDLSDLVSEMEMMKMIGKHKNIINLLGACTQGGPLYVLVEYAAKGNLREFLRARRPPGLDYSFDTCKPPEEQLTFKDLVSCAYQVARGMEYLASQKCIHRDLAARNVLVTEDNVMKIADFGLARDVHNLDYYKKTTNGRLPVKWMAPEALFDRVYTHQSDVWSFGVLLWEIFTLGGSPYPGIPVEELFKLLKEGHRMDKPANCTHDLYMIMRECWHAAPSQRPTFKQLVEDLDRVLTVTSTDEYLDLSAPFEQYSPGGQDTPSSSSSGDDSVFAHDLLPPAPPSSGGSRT

SMILES: C=CC(=O)N1CC2(CCN(C(=O)N3CCC(n4cc(-c5cc(OC)c6c(C#N)cnn6c5)cn4)CC3)CC2)C1 [Example 6, 6-(1-(1-(2-acryloyl-2,7-diazaspiro[3.5]nonane-7-carbonyl)piperidin-4-yl)-1H-pyrazol-4-yl)-4-methoxypyrazolo[1,5-a]pyridine-3-carbonitrile]
- IC50 [1]: 72 nM
- IC50 [2]: 4 nM

SMILES: C=CC(=O)N1C[C@H]2CN(C(=O)N3CCC(n4cc(-c5cc(OC)c6c(C#N)cnn6c5)cn4)CC3)C[C@H]21 [Example 7, 6-(1-(1-((1S,5S)-6-acryloyl-3,6-diazabicyclo[3.2.0]heptane-3-carbonyl)piperidin-4-yl)-1H-pyrazol-4-yl)-4-methoxypyrazolo[1,5-a]pyridine-3-carbonitrile]
- IC50 [1]: 110 nM
- IC50 [2]: 2 nM

SMILES: C=CC(=O)N1CC2(CCN(C(=O)N3CCC(n4cc(-c5cc(OC)c6c(C#N)cnn6c5)cn4)CC3)C2)C1 [Example 8, 6-(1-(1-(2-acryloyl-2,6-diazaspiro[3.4]octane-6-carbonyl)piperidin-4-yl)-1H-pyrazol-4-yl)-4-methoxypyrazolo[1,5-a]pyridine-3-carbonitrile]
- IC50 [1]: 149 nM
- IC50 [2]: 3 nM

SMILES: C=CC(=O)Nc1ccc(CN2CCC(n3cc(-c4cc(OC)c5c(C#N)cnn5c4)cn3)CC2)cc1 [Example 9, N-(4-((4-(4-(3-cyano-4-methoxypyrazolo[1,5-a]pyridin-6-yl)-1H-pyrazol-1-yl)piperidin-1-yl)methyl)phenyl)acrylamide]
- IC50 [1]: 28 nM
- IC50 [2]: 4 nM

SMILES: C=CC(=O)N(C)c1ccc(CN2CCC(n3cc(-c4cc(OC)c5c(C#N)cnn5c4)cn3)CC2)cc1 [Example 10, N-(4-((4-(4-(3-cyano-4-methoxypyrazolo[1,5-a]pyridin-6-yl)-1H-pyrazol-1-yl)piperidin-1-yl)methyl)phenyl)-N-methylacrylamide]
- IC50 [1]: 38 nM
- IC50 [2]: 6 nM

SMILES: C=CC(=O)N1CCC(n2cc(-c3cc(OC)c4c(C#N)cnn4c3)cn2)CC1 [Example 11, 6-(1-(1-acryloylpiperidin-4-yl)-1H-pyrazol-4-yl)-4-methoxypyrazolo[1,5-a]pyridine-3-carbonitrile]
- IC50 [2]: 7 nM

SMILES: C=CC(=O)N1CCC(F)(C(=O)N2CCC(n3cc(-c4cc(OC)c5c(C#N)cnn5c4)cn3)CC2)CC1 [Example 13, 6-(1-(1-(1-acryloyl-4-fluoropiperidine-4-carbonyl)piperidin-4-yl)-1H-pyrazol-4-yl)-4-methoxypyrazolo[1,5-a]pyridine-3-carbonitrile]
- IC50 [1]: 39 nM
- IC50 [2]: 3 nM

SMILES: C=CC(=O)N1CC(F)(C(=O)N2CCC(n3ncc(-c4cc(OC)c5c(C#N)cnn5c4)c3CC)CC2)C1 [Example 96, 6-(1-(1-(1-acryloyl-3-fluoroazetidine-3-carbonyl)piperidin-4-yl)-5-ethyl-1H-pyrazol-4-yl)-4-methoxypyrazolo[1,5-a]pyridine-3-carbonitrile]
- IC50 [2]: 291 nM
- IC50 [3]: 351 nM
- IC50 [4]: 2100 nM

SMILES: C=CC(=O)N1CC(C(=O)N2CCC(n3cc(-c4cc(OC)c5c(C#N)cnn5c4)c(CC)n3)CC2)C1 [Example 97, 6-(1-(1-(1-acryloylazetidine-3-carbonyl)piperidin-4-yl)-3-ethyl-1H-pyrazol-4-yl)-4-methoxypyrazolo[1,5-a]pyridine-3-carbonitrile]
- IC50 [2]: 72 nM
- IC50 [3]: 384 nM

SMILES: C=CC(=O)N1CC(C(=O)N2CCC(n3cnc(-c4cc(OC)c5c(C#N)cnn5c4)c3)CC2)C1 [Example 98, 6-(1-(1-(1-acryloylazetidine-3-carbonyl)piperidin-4-yl)-1H-imidazol-4-yl)-4-methoxypyrazolo[1,5-a]pyridine-3-carbonitrile]
- IC50 [1]: 1130 nM
- IC50 [2]: 9 nM

SMILES: C=CC(=O)N1CC(C(=O)N2CCC(c3ccc(-c4cc(OC)c5c(C#N)cnn5c4)cc3)CC2)C1 [Example 101, 6-(4-(1-(1-acryloylazetidine-3-carbonyl)piperidin-4-yl)phenyl)-4-methoxypyrazolo[1,5-a]pyridine-3-carbonitrile]
- IC50 [1]: 69 nM
- IC50 [2]: 4 nM

SMILES: C=CC(=O)N1CC(C(=O)N2CCN(c3ncc(-c4cc(OC)c5c(C#N)cnn5c4)cc3C)CC2)C1 [Example 113, 6-(6-(4-(1-acryloylazetidine-3-carbonyl)piperazin-1-yl)-5-methylpyridin-3-yl)-4-methoxypyrazolo[1,5-a]pyridine-3-carbonitrile]
- IC50 [2]: 105 nM
- IC50 [3]: 186 nM
- IC50 [4]: 1570 nM

SMILES: C=CC(=O)N1CC(F)(C(=O)N2CCN(c3cc(C)c(-c4cc(OC)c5c(C#N)cnn5c4)cn3)CC2)C1 [Example 114, 6-(6-(4-(1-acryloyl-3-fluoroazetidine-3-carbonyl)piperazin-1-yl)-4-methylpyridin-3-yl)-4-methoxypyrazolo[1,5-a]pyridine-3-carbonitrile]
- IC50 [2]: 258 nM
- IC50 [3]: 248 nM
- IC50 [4]: 1310 nM

SMILES: C=CC(=O)N1CC(C(=O)N2CCN(c3ccc(-c4cc(OC)c5c(C#N)cnn5c4)nn3)CC2)C1 [Example 115, 6-(6-(4-(1-acryloylazetidine-3-carbonyl)piperazin-1-yl)pyridazin-3-yl)-4-methoxypyrazolo[1,5-a]pyridine-3-carbonitrile]
- IC50 [2]: 18 nM
- IC50 [3]: 1240 nM
- IC50 [4]: ≥ 5000 nM

SMILES: C=CC(=O)N1CC(C(=O)N2CCN(c3cnc(-c4cc(OC)c5c(C#N)cnn5c4)cn3)CC2)C1 [Example 116, 6-(5-(4-(1-acryloylazetidine-3-carbonyl)piperazin-1-yl)pyrazin-2-yl)-4-methoxypyrazolo[1,5-a]pyridine-3-carbonitrile]
- IC50 [2]: 27 nM
- IC50 [3]: 164 nM
- IC50 [4]: 1230 nM

SMILES: C=CC(=O)N1CC(C)(C(=O)N2CCC(n3cc(-c4cc(OC)c5c(Cl)cnn5c4)cn3)CC2)C1 [Example 123, 1-(3-(4-(4-(3-chloro-4-methoxypyrazolo[1,5-a]pyridin-6-yl)-1H-pyrazol-1-yl)piperidine-1-carbonyl)-3-methylazetidin-1-yl)prop-2-en-1-one]
- IC50 [1]: 57 nM
- IC50 [2]: 8 nM

SMILES: COc1cc(-c2cnc(N3CCN(C(=O)C4(F)CN(C(=O)/C=C/CN(C)C)C4)CC3)cc2C)cn2ncc(C#N)c12 [Example 169, (E)-6-(6-(4-(1-(4-(dimethylamino)but-2-enoyl)-3-fluoroazetidine-3-carbonyl)piperazin-1-yl) -4-methylpyridin-3-yl)-4-methoxypyrazolo [1,5-a]pyridine-3-carbonitrile]
- IC50 [2]: 83 nM
- IC50 [3]: 175 nM
- IC50 [4]: 751 nM

SMILES: COc1cc(-c2cnn(C3CCN(C(=O)C4CN(C(=O)/C=C/CBr)C4)CC3)c2)cn2ncc(C#N)c12 [Example 180, (E)-6-(1-(1-(1-(4-bromobut-2-enoyl)azetidine-3-carbonyl)piperidin-4-yl)-1H-pyrazol-4-yl)-4-methoxypyrazolo[1,5-a]pyridine-3-carbonitrile]
- IC50 [2]: 6 nM
- IC50 [3]: 45 nM
- IC50 [4]: 130 nM
